In ChEMBL document CHEMBL3992543, “New quinolinic derivatives as melatonergic ligands: Synthesis and pharmacological evaluation” (Eur J Med Chem, 2017):

Assays:
[1] = target: T1, Melatonin receptor type 1A (Homo sapiens, UniProt P48039); assay: Displacement of 2-[125I]iodomelatonin from human MT1 receptor expressed in HEK or CHO cell membranes after 120 mins
[2] = target: T2, Melatonin receptor type 1B (Homo sapiens, UniProt P49286); assay: Displacement of 2-[125I]iodomelatonin from human MT2 receptor expressed in HEK or CHO cell membranes after 120 mins
T2 sequence (P49286 whole entry): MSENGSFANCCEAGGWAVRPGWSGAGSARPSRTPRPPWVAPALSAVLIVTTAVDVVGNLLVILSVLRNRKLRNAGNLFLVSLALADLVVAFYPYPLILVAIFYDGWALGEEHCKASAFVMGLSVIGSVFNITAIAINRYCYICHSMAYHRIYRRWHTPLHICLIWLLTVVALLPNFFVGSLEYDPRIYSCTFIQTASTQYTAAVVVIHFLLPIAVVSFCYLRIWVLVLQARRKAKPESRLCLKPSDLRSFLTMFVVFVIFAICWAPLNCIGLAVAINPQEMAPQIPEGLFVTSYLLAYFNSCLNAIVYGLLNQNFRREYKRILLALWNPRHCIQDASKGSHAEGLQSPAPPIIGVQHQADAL

[3] = target: T2, Melatonin receptor type 1B; assay: Intrinsic activity at human MT2 receptor expressed in CHO cell membranes after 1 hr by [35S]GTPgammaS binding assay; format: functional
[4] = target: T1, Melatonin receptor type 1A; assay: Intrinsic activity at human MT1 receptor expressed in CHO cell membranes after 1 hr by [35S]GTPgammaS binding assay; format: functional
Homo sapiens = species: Homo sapiens; assay: Selectivity ratio of Ki for human MT1 receptor to Ki for human MT2 receptor

T1 sequence (P48039 whole entry): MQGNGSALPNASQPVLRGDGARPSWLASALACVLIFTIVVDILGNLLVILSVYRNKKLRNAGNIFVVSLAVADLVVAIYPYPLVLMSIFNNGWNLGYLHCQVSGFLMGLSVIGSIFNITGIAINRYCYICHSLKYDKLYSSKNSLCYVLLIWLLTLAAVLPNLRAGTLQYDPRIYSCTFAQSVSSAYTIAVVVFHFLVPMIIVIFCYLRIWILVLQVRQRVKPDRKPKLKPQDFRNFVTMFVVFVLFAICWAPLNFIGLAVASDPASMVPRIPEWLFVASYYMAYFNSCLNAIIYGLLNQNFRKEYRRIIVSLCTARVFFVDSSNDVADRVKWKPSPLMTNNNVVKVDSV

SMILES: COc1cnc2cccc(CCNC(=O)C3CC3)c2c1
- Ki [1]: 124 nM
- Ki [2]: 26 nM

SMILES: CCNC(=S)NCCc1cccc2ccc(OC)nc12
- EC50 [3]: 1.1 nM
- Ki [1]: 4 nM
- Ki [2]: 0.4 nM
- EC50 [4]: 31 nM

SMILES: COc1cnc2cccc(CCNC(N)=O)c2c1
- Ki [1]: 315 nM
- Ki [2]: 40 nM

SMILES: COC(=O)NCCc1cccc2ncc(OC)cc12
- Ki [1]: > 10000 nM
- Ki [2]: 430 nM

SMILES: CNC(=O)NCCc1cccc2ccc(OC)nc12
- EC50 [3]: 0.09 nM
- Ki [1]: 0.6 nM
- Ki [2]: 0.09 nM
- EC50 [4]: 19 nM

SMILES: CNC(=S)NCCc1cccc2ncc(OC)cc12
- Ki [1]: > 10000 nM
- Ki [2]: 250 nM

SMILES: CCNC(=O)NCCc1cccc2ccc(OC)nc12
- EC50 [3]: 0.2 nM
- Ki [1]: 0.8 nM
- Ki [2]: 0.09 nM
- EC50 [4]: 9.5 nM

SMILES: COc1ccc2cccc(CCC(=O)NC3CC3)c2n1
- Ki [1]: 34 nM
- Ki [2]: 0.5 nM
- Ratio Ki (Homo sapiens): 86

SMILES: CCNC(=S)NCCc1cccc2ncc(OC)cc12
- Ki [1]: 690 nM
- Ki [2]: 550 nM

SMILES: COc1ccc2cccc(CCNC(C)=O)c2n1
- EC50 [3]: 0.2 nM
- Ki [1]: 0.3 nM
- Ki [2]: 0.2 nM
- EC50 [4]: 0.8 nM

SMILES: CNC(=O)CCc1cccc2ccc(OC)nc12
- EC50 [3]: 0.7 nM
- Ki [1]: 8 nM
- Ki [2]: 0.3 nM
- Ratio Ki (Homo sapiens): 27
- EC50 [4]: 65 nM

SMILES: CNC(=S)NCCc1cccc2ccc(OC)nc12
- EC50 [3]: 0.1 nM
- Ki [1]: 2 nM
- Ki [2]: 0.1 nM
- EC50 [4]: 90 nM

SMILES: COc1ccc2cccc(CCC(=O)NCCF)c2n1
- Ki [1]: 19 nM
- Ki [2]: 0.3 nM

SMILES: COc1cnc2cccc(CCNC(C)=O)c2c1
- Ki [1]: 60 nM
- Ki [2]: 4 nM

SMILES: COc1ccc2cccc(CCNC(N)=O)c2n1
- EC50 [3]: 0.2 nM
- Ki [1]: 2 nM
- Ki [2]: 0.2 nM
- EC50 [4]: 1620 nM

SMILES: COc1cnc2cccc(CCNC(=O)CF)c2c1
- Ki [1]: 29 nM
- Ki [2]: 6 nM

SMILES: COc1ccc2ccc(CCNC(C)=O)cc2n1
- Ki [1]: 58 nM
- Ki [2]: 22 nM

SMILES: CCNC(=O)NCCc1cccc2ncc(OC)cc12
- Ki [1]: 575 nM
- Ki [2]: 73 nM

SMILES: COC(=O)NCCc1cccc2ccc(OC)nc12
- EC50 [3]: 0.4 nM
- Ki [1]: 7 nM
- Ki [2]: 0.3 nM
- EC50 [4]: > 1000 nM
